pIC50: −log10 of the molar value.

The target of this assay is HIS-TGFβR1 T204D (Homo sapiens (Human), UniProt P36897, T204D). The experiment in a line: HTRF probe-displacement assay, HIS-TGFβR1 T204D. Format: binding. As to conditions: 1 hour at room temperature. A general note: Time-resolved FRET reads energy transfer from a long-lived donor to a nearby acceptor.
Chain of HIS-TGFβR1 T204D (P36897 34-503 T204D): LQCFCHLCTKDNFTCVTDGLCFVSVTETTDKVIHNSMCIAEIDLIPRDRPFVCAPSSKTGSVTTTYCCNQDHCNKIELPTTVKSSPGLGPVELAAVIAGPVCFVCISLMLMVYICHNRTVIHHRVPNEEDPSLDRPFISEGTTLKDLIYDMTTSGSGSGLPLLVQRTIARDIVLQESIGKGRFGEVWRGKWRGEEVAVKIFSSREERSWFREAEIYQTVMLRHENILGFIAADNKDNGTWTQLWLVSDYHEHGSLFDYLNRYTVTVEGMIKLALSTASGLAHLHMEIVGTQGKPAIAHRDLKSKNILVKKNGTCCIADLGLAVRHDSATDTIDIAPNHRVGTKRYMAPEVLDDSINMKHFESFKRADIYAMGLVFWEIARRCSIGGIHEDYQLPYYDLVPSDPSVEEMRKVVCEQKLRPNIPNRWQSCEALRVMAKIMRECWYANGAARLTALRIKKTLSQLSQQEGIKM
In general, pIC50 refers to the negative decadic logarithm of the IC50, by convention in mol/L. Read a high pIC50 as a small IC50. `OC1CCCCC1NCc1ccn2nc(-c3ccccn3)nc(Nc3ccncc3F)c12` (stereo not shown) [Example 272, 2-[({4-[(3-fluoropyridin-4-yl)amino]-2-(pyridin-2-yl)pyrrolo[2,1-f][1,2,4]triazin-5-yl}methyl)amino]cyclohexan-1-ol] showed a pIC50 of 8.96. In the case of `O=C(NCCN1CCCC1)c1cnccc1Nc1nc(-c2ccccn2)nn2cccc12` [Example 142] it was 7.72; in that of `COc1cccc(-c2nc(Nc3ccncc3F)c3c(OCCN4CCCC4)ccn3n2)n1` [Example 45, 3-fluoro-N-[2-(6-methoxypyridin-2-yl)-5-[2-(pyrrolidin-1-yl)ethoxy]pyrrolo[2,1-f][1,2,4]triazin-4-yl]pyridin-4-amine], 5.31; in that of `OCC(CO)NCc1ccn2nc(-c3ccccn3)nc(Nc3ccncc3F)c12` [Example 264, 2-[({4-[(3-fluoropyridin-4-yl)amino]-2-(pyridin-2-yl)pyrrolo[2,1-f][1,2,4]triazin-5-yl}methyl)amino]propane-1,3-diol], 8.77. On to `CCc1nnc(CNC(=O)c2cnccc2Nc2nc(-c3cccc(C(F)F)n3)nn3cccc23)o1` [Example 182, 4-({2-[6-(difluoromethyl)pyridin-2-yl]pyrrolo[2,1-f][1,2,4]triazin-4-yl}amino)-N-[(5-ethyl-1,3,4-oxadiazol-2-yl)methyl]pyridine-3-carboxamide], for which the negative-log IC50 (pIC50) was 7.80. Compound `CC(C)(O)CNCc1ccn2nc(-c3cccc(C(F)(F)F)n3)nc(Nc3ccncc3F)c12` [Example 124, 1-[({4-[(3-fluoropyridin-4-yl)amino]-2-[6-(trifluoromethyl)pyridin-2-yl]pyrrolo[2,1-f][1,2,4]triazin-5-yl}methyl)amino]-2-methylpropan-2-ol] gave a pIC50 of 8.22. Compound `O=C(NC1CCC(F)(F)CC1)c1cnccc1Nc1nc(-c2cccc(C(F)F)n2)nn2cccc12` [Example 201, N-(4,4-difluorocyclohexyl)-4-({2-[6-(difluoromethyl)pyridin-2-yl]pyrrolo[2,1-f][1,2,4]triazin-4-yl}amino)pyridine-3-carboxamide] had a negative logarithm of the IC50 (pIC50) of 6.39. This pIC50 is 1.83 log units lower than that of the compound before.

The compound `CC(C)(C)CC(=O)Nc1cc(Nc2nc(-c3cccc(C(F)(F)F)n3)nn3cccc23)ccn1` [Example 321, 3,3-dimethyl-N-[4-({2-[6-(trifluoromethyl)pyridin-2-yl]pyrrolo[2,1-f][1,2,4]triazin-4-yl}amino)pyridin-2-yl]butanamide] had a negative-log IC50 (pIC50) of 7.04. This pIC50 is 0.65 log units higher than that of the compound before. The compound `O[C@H]1CC[C@H](NCc2ccn3nc(-c4ccccn4)nc(Nc4ccncc4F)c23)CC1` [Example 288, (1R,4R)-4-[({4-[(3-fluoropyridin-4-yl)amino]-2-(pyridin-2-yl)pyrrolo[2,1-f][1,2,4]triazin-5-yl}methyl)amino]cyclohexan-1-ol] gave a pIC50 of 8.49. Consider `Cc1cccc(-c2nc(Nc3ccncc3C(=O)N(C)CCN(C)C)c3cccn3n2)n1` [Example 162, N-[2-(dimethylamino)ethyl]-N-methyl-4-{[2-(6-methylpyridin-2-yl)pyrrolo[2,1-f][1,2,4]triazin-4-yl]amino}pyridine-3-carboxamide], for which the pIC50 is 6.96. This pIC50 is 1.53 log units lower than that of the compound before. The compound `Cc1nc(-c2nc(Nc3ccncc3Cl)c3cccn3n2)ccc1F` [Example 3, 3-chloro-N-[2-(5-fluoro-6-methylpyridin-2-yl)pyrrolo[2,1-f][1,2,4]triazin-4-yl]pyridin-4-amine] showed a pIC50 of 9.09. For the compound `COc1cccc(-c2nc(Nc3ccncc3F)c3c(CCO)ccn3n2)n1` [Example 46, 2-{4-[(3-fluoropyridin-4-yl)amino]-2-(6-methoxypyridin-2-yl)pyrrolo[2,1-f][1,2,4]triazin-5-yl}ethan-1-ol], the negative-log IC50 (pIC50) was 8.52. This pIC50 is 0.57 log units lower than that of the compound before. In the case of `COc1cccc(-c2nc(Nc3ccncc3F)c3cc(NC(=O)CN4CCOCC4)cn3n2)n1` [Example 106, N-{4-[(3-fluoropyridin-4-yl)amino]-2-(6-methoxypyridin-2-yl)pyrrolo[2,1-f][1,2,4]triazin-6-yl}-2-(morpholin-4-yl)acetamide] it was 5.85.

The record behind these values is patent US10336761B2, “TGFβ receptor antagonist” (BRISTOL-MYERS SQUIBB COMPANY, priority 2015, dated 2019).
